Laboratory results taken from BigSolDB 2.1.

Nc1cccnc1
solubility (mole fraction)
Settings	283.15 K	288.15 K	293.15 K	298.15 K	303.15 K	308.15 K	313.15 K	318.15 K	323.15 K
in ethanol	0.438	0.476	0.518	0.566	0.612	0.66	0.71	0.764	0.821
in toluene	0.0297	0.0427	0.0646	0.0971	0.152	0.223	0.313	0.418	0.546
